Patent publication US7122335B1, “Compounds and methods to enhance rAAV transduction” (priority 1999, dated 2006)

Legend:
[1] = test system: Hela cells; assay: Cy3-labeled rAAV binding to Hela cells at 4° C., heparin competition; assay type: cell-based, human; details: free heparin at the time of infection
Description: FIGS. 18A–D. Cy3-labeled rAAV infection in Hela cells. Hela cells were infected with Cy3-labeled AV.GFP3ori at an MOI of 500 particles/cells for 90 minutes at 4° C. in the absence of serum. Cells were then washed and either directly fixed in 2% paraformaldehyde for 10 minutes or incubated at 37° C. for an additional 60 or 120 minutes prior to fixation. Prior to viral infections, cells were incubated for 30 minutes in 1 μM 5-chloromethylfluorescein diacetate (Cell Tracker™ Green CMFDA, Molecular Probe) to allow for visualization of cells and labeled virus in dual fluorescent channel images. Representative confocal image of cells infected for 90 minutes at 4° C. followed by a 60 and 120 minute incubation at 37° C. are shown for both Cy3 and dual Cy3/FITC channels (FIG. 18A). The nuclei in dual channel images are marked by Nu. The confocal images shown were merged from three 0.5 μm layers taken within the central region of the cell. FIG. 18B depicts non-confocal images with Nomarski and Cy3 channels for cells infected for 90 minutes at 4° C. […]
To assess endocytosis and nuclear trafficking of AAV following treatment with various agents which may modulate these processes, fluorescently labeled virus was prepared. […] Several experimental conditions evaluated crosslinking reactions with dye:rAAV particle ratios of 0.2, 1, 5, 25, 100, and 200. […]

[2] = test system: Hela cells; details: previously shown; cited from earlier work

Substance: heparin
- viral binding of Cy3-labeled rAAV [1]: inhibited in a dose-dependent fashion
- rAAV transduction in Hela cells [2]: inhibit most of rAAV transduction
